Experimental data published in article PMC5155509 (ChemMedChem, 2016).
≈ marks a conversion by molar mass, not a printed value. Where “and” joins values, the source holds several entries; their conditions need not be identical. Identical values can stand only once. Like-named read-outs stand apart in the source and are kept apart here. Blank lines part the entries; values can stand above or below the molecule they belong to.

Legend:
E. coli = conditions: earlier work of the authors, no reference given; cited from earlier work
E. coli UPPS (EcUPPS) = conditions: read-out: IC50 EcUPPS; previous work ref 3b; cited from earlier work
B. subtilis [1] = conditions: earlier work of the authors, no reference given; cited from earlier work
B. subtilis [2] = assay: B. subtilis growth inhibition assay; assay type: cell-based, Bacillus subtilis; conditions: 12 hours at 37°C, OD600
SaUPPS = biological target: T1, SaUPPS (Staphylococcus aureus, UniProt P60477); assay: biochemical; assay type: biochemical
T1 sequence (P60477 1-256): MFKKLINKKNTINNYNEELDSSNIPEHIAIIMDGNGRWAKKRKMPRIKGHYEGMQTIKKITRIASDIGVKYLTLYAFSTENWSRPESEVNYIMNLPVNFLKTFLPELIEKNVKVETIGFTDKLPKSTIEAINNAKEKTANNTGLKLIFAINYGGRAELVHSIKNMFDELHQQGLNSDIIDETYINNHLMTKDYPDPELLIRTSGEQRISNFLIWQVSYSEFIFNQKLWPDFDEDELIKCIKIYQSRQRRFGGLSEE

B. subtilis [3] = assay: Synergy/antagonism two-drug combination assay, B. subtilis; assay type: cell-based, Bacillus subtilis; conditions: for Mean FICI / FIC 7 / FIC antibiotic / FIC Index: B. subtilis; for MIC: Bacillus subtilis; for FIC antibiotic: antibiotic in combination with 7, mean±SD duplicate; for FIC Index: combination of the antibiotic with 7, mean±SD
[4] = system: Staphylococcus aureus and Bacillus subtilis; assay: Bacterial cell growth inhibition, bacterium not specified at the place; assay type: cell-based
NCI-H460 cells = assay: H460 cell toxicity; assay type: cell-based, human; conditions: 24 h, MTT
[5] = system: S. aureus and B. subtilis; assay: Synergy/antagonism assays, average over B. subtilis and S. aureus combinations; assay type: cell-based
S. aureus = assay: Synergy/antagonism two-drug combination assay, S. aureus; assay type: cell-based, Staphylococcus aureus; conditions: for Mean FICI / FIC 7 / FIC antibiotic / FIC Index: S. aureus; for MIC: Staphylococcus aureus; for FIC antibiotic: antibiotic in combination with 7, mean±SD duplicate; for FIC Index: combination of the antibiotic with 7, mean±SD
[6] = biological target: EcUPPP (fusion hybrid of E. coli UPPP with Haloarcula marismortui bacteriorhodopsin) (UniProt P60932+Q5UXY6, D94N); assay type: biochemical; conditions: read-out: IC50 EcUPPP
[7] = 7 with inhibitors targeting cell wall biosynthesis
[8] = 7 with inhibitors targeting nucleic acids and protein biosynthesis

EcUPPP (fusion hybrid of E. coli UPPP with Haloarcula marismortui bacteriorhodopsin), sequence (P60932 whole entry, looked up, the tested form may be a part): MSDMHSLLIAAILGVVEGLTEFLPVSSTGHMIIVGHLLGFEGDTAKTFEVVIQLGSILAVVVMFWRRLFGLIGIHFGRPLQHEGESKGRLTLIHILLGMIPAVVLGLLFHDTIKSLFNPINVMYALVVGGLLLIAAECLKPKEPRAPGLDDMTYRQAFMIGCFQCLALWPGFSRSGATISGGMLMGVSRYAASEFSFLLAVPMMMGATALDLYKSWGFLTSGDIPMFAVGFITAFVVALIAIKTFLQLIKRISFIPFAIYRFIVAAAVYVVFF
EcUPPP (fusion hybrid of E. coli UPPP with Haloarcula marismortui bacteriorhodopsin), sequence (Q5UXY6 whole entry, looked up, stated change not applied, the tested form may be a part): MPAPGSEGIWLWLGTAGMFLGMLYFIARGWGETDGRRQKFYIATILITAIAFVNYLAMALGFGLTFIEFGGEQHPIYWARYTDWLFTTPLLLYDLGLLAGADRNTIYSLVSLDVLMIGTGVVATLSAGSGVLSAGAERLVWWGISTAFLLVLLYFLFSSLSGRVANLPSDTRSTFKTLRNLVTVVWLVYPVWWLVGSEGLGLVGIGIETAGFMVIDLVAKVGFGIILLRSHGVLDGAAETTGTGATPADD

Molecule: CCCCCCCCCCOc1cccc(C(=O)Nc2ccc([N+](=O)[O-])cc2C(=O)O)c1 [Compound 6, 2-(3-(decyloxy)benzamido)-5-nitrobenzoic acid]
activity against E. coli (in words) (E. coli): no activity
IC50 (E. coli UPPS (EcUPPS)): 3 µM
ED50 against B. subtilis (B. subtilis [1]): 1.3 µM

Molecule: CN[C@H](CC(C)C)C(=O)N[C@H]1C(=O)N[C@@H](CC(N)=O)C(=O)N[C@H]2C(=O)N[C@H]3C(=O)N[C@H](C(=O)N[C@H](C(=O)O)c4cc(O)cc(O)c4-c4cc3ccc4O)[C@H](O)c3ccc(c(Cl)c3)Oc3cc2cc(c3O[C@@H]2O[C@H](CO)[C@@H](O)[C@H](O)[C@H]2O[C@H]2C[C@](C)(N)[C@H](O)[C@H](C)O2)Oc2ccc(cc2Cl)[C@H]1O [Vancomycin, vancomycin]
FIC antibiotic (B. subtilis [3]): 0.27 ± 0.24
FIC Index (B. subtilis [3]): 0.44 ± 0.25
MIC (B. subtilis [3]; 24 h, read-out: MIC antibiotic): 0.5 µg/mL
FIC antibiotic (S. aureus): 0.14 ± 0.034
FIC Index (S. aureus): 0.29 ± 0.071
MIC (S. aureus; 24 h, read-out: MIC antibiotic): 1.5 µg/mL

Molecule: 2-(N-Methyl-3-(octyloxy)benzamido)phenylphosphonic acid [Compound 31]
IC50 [6]: 6.5 µM
ED50 B. subtilis cell growth (B. subtilis [2]): >100 µg/mL
IC50 (SaUPPS; read-out: IC50 SaUPPS, 5 μM FPP, 50 μM IPP, pH 7.5): 39 µM
antibacterial activity (in words) ([4]; S. aureus and B. subtilis cell growth): little or no antibacterial activity

Molecule: COc1cc(Cc2cnc(N)nc2N)cc(OC)c1OC [Trimethoprim, trimethoprim]
FIC antibiotic (B. subtilis [3]): 0.66 ± 0.13
FIC Index (B. subtilis [3]): 1.51 ± 0.32
MIC (B. subtilis [3]; 24 h, read-out: MIC antibiotic): 0.5 µg/mL
FIC antibiotic (S. aureus): 0.69 ± 0.32
FIC Index (S. aureus): 1.26 ± 0.41
MIC (S. aureus; 24 h, read-out: MIC antibiotic): 15 µg/mL

Molecule: CC1(C)S[C@@H]2[C@H](NC(=O)[C@H](N)c3ccccc3)C(=O)N2[C@H]1C(=O)O [Ampicillin, ampicillin]
FIC antibiotic (B. subtilis [3]): 0.30 ± 0.072
FIC Index (B. subtilis [3]): 0.53 ± 0.11
MIC (B. subtilis [3]; 24 h, read-out: MIC antibiotic): 0.5 µg/mL
FIC antibiotic (S. aureus): 0.41 ± 0.17
FIC Index (S. aureus): 0.56 ± 0.18
MIC (S. aureus; 24 h, read-out: MIC antibiotic): 0.5 µg/mL

Molecule: CC1(C)S[C@@H]2[C@H](NC(=O)C(C(=O)O)c3ccccc3)C(=O)N2[C@H]1C(=O)O (some centres unmarked) [Carbenicillin, carbenicillin]
FIC antibiotic (B. subtilis [3]): 0.22 ± 0.073
FIC Index (B. subtilis [3]): 0.37 ± 0.10
MIC (B. subtilis [3]; 24 h, read-out: MIC antibiotic): 5 µg/mL
FIC antibiotic (S. aureus): 0.23 ± 0.048
FIC Index (S. aureus): 0.30 ± 0.055
MIC (S. aureus; 24 h, read-out: MIC antibiotic): 15 µg/mL

Molecule: CO/N=C(\C(=O)N[C@@H]1C(=O)N2C(C(=O)O)=C(COC(C)=O)CS[C@H]12)c1csc(N)n1 [Cefotaxime, cefotaxime]
FIC antibiotic (B. subtilis [3]): 0.17 ± 0.026
FIC Index (B. subtilis [3]): 0.31 ± 0.085
MIC (B. subtilis [3]; 24 h, read-out: MIC antibiotic): 2.5 µg/mL
FIC antibiotic (S. aureus): 0.18 ± 0.055
FIC Index (S. aureus): 0.27 ± 0.063
MIC (S. aureus; 24 h, read-out: MIC antibiotic): 2 µg/mL

Molecule: CN(C)[C@@H]1C(O)=C(C(N)=O)C(=O)[C@@]2(O)C(O)=C3C(=O)c4c(O)cccc4[C@@](C)(O)[C@H]3C[C@@H]12 [Tetracycline, tetracycline]
FIC antibiotic (B. subtilis [3]): 0.48 ± 0.047
FIC Index (B. subtilis [3]): 1.04 ± 0.50
MIC (B. subtilis [3]; 24 h, read-out: MIC antibiotic): 5 µg/mL
FIC antibiotic (S. aureus): 0.24 ± 0.11
FIC Index (S. aureus): 0.75 ± 0.26
MIC (S. aureus; 24 h, read-out: MIC antibiotic): 0.5 µg/mL

The next lines start with results.

IC50 (SaUPPS): 0.32 µM
MIC (B. subtilis [3]; read-out: MIC 7): 1 µg/mL
MIC (S. aureus; read-out: MIC 7): 1 µg/mL
Molecule: CCCCCCCCOc1cccc(C(=O)Nc2ccc(F)cc2C(=O)O)c1 [Compound 7, 5-Fluoro-2-(3-(octyloxy)benzamido)benzoic acid]
ED50 B. subtilis cell growth (B. subtilis [2]): 0.14 µg/mL (≈ 0.361 µM)
Mean FICI (B. subtilis [3]; [7]): 0.37 and 0.37 ± 0.14
Mean FICI (B. subtilis [3]; [8]): 1.47 and 1.47 ± 0.28
FIC 7 (B. subtilis [3]; with Ampicillin): 0.23 ± 0.084
FIC 7 (B. subtilis [3]; with Bacitracin): 0.36 ± 0.14
FIC 7 (B. subtilis [3]; with Carbenicillin): 0.15 ± 0.071
FIC 7 (B. subtilis [3]; with Cefotaxime): 0.14 ± 0.081
FIC 7 (B. subtilis [3]; with Chloramphenicol): 0.97 ± 0.42
FIC 7 (B. subtilis [3]; with Fosfomycin): 0.063 ± 0.022
FIC 7 (B. subtilis [3]; with Fosmidomycin): 0.13 ± 0.056
FIC 7 (B. subtilis [3]; with Kanamycin): 0.71 ± 0.30
FIC 7 (B. subtilis [3]; with Sulfamethoxazole): 0.94 ± 0.64
FIC 7 (B. subtilis [3]; with Tetracycline): 0.57 ± 0.50
FIC 7 (B. subtilis [3]; with Trimethoprim): 0.85 ± 0.29
FIC 7 (B. subtilis [3]; with Vancomycin): 0.17 ± 0.063
ED50 bacterial growth ([4]; abstract, bacterium not specified): ~ 0.15 μg/mL
toxicity against human cell line NCI-H460 (in words) (NCI-H460 cells): low activity
FICI on average ([5]; with known cell wall biosynthesis inhibitors, n=13 cell/inhibitor combinations): ~ 0.35
FICI on average ([5]; with non cell-wall biosynthesis inhibitors, n=12 cell/inhibitor combinations): ~ 1.45
Mean FICI (S. aureus; [7]): 0.32 and 0.32 ± 0.12
Mean FICI (S. aureus; [8]): 1.42 and 1.42 ± 0.37
FIC 7 (S. aureus; with Ampicillin): 0.15 ± 0.071
FIC 7 (S. aureus; with Bacitracin): 0.044 ± 0.019
FIC 7 (S. aureus; with Carbenicillin): 0.077 ± 0.026
FIC 7 (S. aureus; with Cefotaxime): 0.084 ± 0.031
FIC 7 (S. aureus; with Chloramphenicol): 0.81 ± 0.31
FIC 7 (S. aureus; with Fosfomycin): 0.091 ± 0.034
FIC 7 (S. aureus; with Kanamycin): 0.83 ± 0.29
FIC 7 (S. aureus; with Spectinomycin): 0.81 ± 0.32
FIC 7 (S. aureus; with Sulfamethoxazole): 0.98 ± 0.37
FIC 7 (S. aureus; with Tetracycline): 0.51 ± 0.24
FIC 7 (S. aureus; with Trimethoprim): 0.57 ± 0.25
FIC 7 (S. aureus; with Vancomycin): 0.15 ± 0.062

MIC (B. subtilis [3]; 24 h, read-out: MIC antibiotic): 200 µg/mL
MIC (S. aureus; 24 h, read-out: MIC antibiotic): 200 µg/mL
Molecule: Cc1cc(NS(=O)(=O)c2ccc(N)cc2)no1 [Sulfamethoxazole, sulfamethoxazole]
FIC antibiotic (B. subtilis [3]): 0.78 ± 0.21
FIC Index (B. subtilis [3]): 1.72 ± 0.67
FIC Index (B. subtilis [3]; listed as sulfamethoxazole): 1.72
FIC antibiotic (S. aureus): 0.54 ± 0.13
FIC Index (S. aureus): 1.53 ± 0.39

MIC (S. aureus; 24 h, read-out: MIC antibiotic): 40 µg/mL
Molecule: CN[C@@H]1[C@H](O)[C@H](NC)[C@H]2O[C@@]3(O)C(=O)C[C@@H](C)O[C@H]3O[C@@H]2[C@H]1O [Spectinomycin, spectinomycin]
FIC antibiotic (S. aureus): 0.75 ± 0.43
FIC Index (S. aureus): 1.56 ± 0.54

MIC (B. subtilis [3]; 24 h, read-out: MIC antibiotic): 200 µg/mL
MIC (S. aureus; 24 h, read-out: MIC antibiotic): 200 µg/mL
Molecule: C[C@@H]1O[C@@H]1P(=O)(O)O [Fosfomycin, fosfomycin]
FIC antibiotic (B. subtilis [3]): 0.16 ± 0.15
FIC Index (B. subtilis [3]): 0.22 ± 0.15
FIC antibiotic (S. aureus): 0.20 ± 0.11

MIC (B. subtilis [3]; 24 h, read-out: MIC antibiotic): 5 µg/mL
Molecule: O=CN(O)CCCP(=O)(O)O [Fosmidomycin, fosmidomycin]
FIC antibiotic (B. subtilis [3]): 0.039 ± 0.0053
FIC Index (B. subtilis [3]): 0.17 ± 0.056
FIC Index (B. subtilis [3]; listed as fosmidomycin): 0.17

MIC (B. subtilis [3]; 24 h, read-out: MIC antibiotic): 0.5 µg/mL
MIC (S. aureus; 24 h, read-out: MIC antibiotic): 5 µg/mL
Molecule: O=C(N[C@H](CO)[C@H](O)c1ccc([N+](=O)[O-])cc1)C(Cl)Cl [Chloramphenicol, chloramphenicol]
FIC antibiotic (B. subtilis [3]): 0.75 ± 0.18
FIC Index (B. subtilis [3]): 1.72 ± 0.46
FIC antibiotic (S. aureus): 0.88 ± 0.47
FIC Index (S. aureus): 1.69 ± 0.56
